Counter-ions that a name gives are not always drawn.
Each compound was assayed on Human peripheral blood mononuclear cells (PBMC) (assay: PBMC screening assay, TNF-α in supernatant). Conditions: TNF-α in supernatant of human PBMC, 24 hours, ELISA or HTRF.
Type: cell-based
Description: Human peripheral blood mononuclear cells (PBMC) were obtained from BenTek, frozen at 25×10^6 cell/mL in 10% DMSO (Sigma) prepared in fetal bovine serum (Gibco) and stored in liquid nitrogen. For culture PBMC were thawed quickly in a 37° C. water bath and diluted into pre-warmed RPMI 1640 (Lonza) supplemented with 10% fetal bovine serum, 2 mM glutamine, 50 μg/mL penicillin, 50 U/mL streptomycin (all from Gibco) and centrifuged for 5 minutes at 500×g. PBMC were suspended into the growth media described above and cultured at a concentration of 1×10^6 cells per mL at 37° C. in a 5% CO2 incubator.
PBMC were thawed, suspended at a concentration of 1×10^6 cell/mL in growth media and 200 μL was aliquoted into each well of a 96-well plate for a total of 0.2×10^6 cells per well. PBMC were incubated for 16-18 hours at 37° C. in a 5% CO2 humidified incubator. The following day PBMC plates were centrifuged at 500×g for 5 minutes and the growth media was removed. 150 μL of twelve concentrations ranging from 1000 to 0.000238 nM of small molecules prepared in growth media were added to PBMC in duplicate and incubated for 24 hours at 37° C. in a 5% CO2 incubator. Prior to supernatant harvest, cells were spun at 500×g for 5 minutes to remove cell debris. TNF-α activity was assessed in the supernatant by ELISA (eBioscience) or HTRF (CisBio) per the manufacturer's instructions. Optical density at 450 nm and 570 nm (ELISA) or luminescence (HTRF) was analyzed using an Envision (Perkin Elmer) plate reader, as shown in Table 5.
With `CCCN(CCC)C(=O)C1=Cc2ccc(C(=O)Nc3cnc4c(c3)CN(Cc3ccccc3)CC4)cc2N=C(N)C1` [Compound 1.48, 2-amino-N^8-(6-benzyl-5,6,7,8-tetrahydro-1,6-naphthyridin-3-yl)-N^4,N^4-dipropyl-3H-benzo[b]azepine-4,8-dicarboxamide] the EC50 was < 500 nM. For `CCCN(CCC)C(=O)C1=Cc2ccc(C(=O)NCC3OB(O)c4cc(NC(=O)OCc5ccccc5)ccc43)cc2N=C(N)C1` (stereo not drawn) [Compound 1.49, benzyl (3-((2-amino-4-(dipropylcarbamoyl)-3H-benzo[b]azepine-8-carboxamido)methyl)-1-hydroxy-1,3-dihydrobenzo[c][1,2]oxaborol-6-yl)carbamate TFA salt], the EC50 was 500 to 1000 nM. With `CCCN(CCC)C(=O)C1=Cc2ccc(C(=O)Nc3cnc4c(c3)CNCC4)cc2N=C(N)C1` [Compound 1.50, 2-amino-N^4,N^4-dipropyl-N^8-(5,6,7,8-tetrahydro-1,6-naphthyridin-3-yl)-3H-benzo[b]azepine-4,8-dicarboxamide] the EC50 was < 500 nM. Work on `CCCN(CCC)C(=O)C1=Cc2ccc(C(=O)Nc3cncc(CNC(=O)[C@@H](N)C(C)C)c3)cc2N=C(N)C1` [Compound 1.51, (S)-2-amino-N^8-(5-((2-amino-3-methylbutanamido)methyl)pyridin-3-yl)-N^4,N^4-dipropyl-3H-benzo[b]azepine-4,8-dicarboxamide] yielded an EC50 of 1000 to 3000 nM. In the case of `CCCN(CCC)C(=O)C1=Cc2ccc(C(=O)Nc3ccc(N4CCCC(N)C4)nc3)cc2N=C(N)C1` (stereo not drawn) [Compound 1.56, 2-amino-N^8-(6-(3-aminopiperidin-1-yl)pyridin-3-yl)-N^4,N^4-dipropyl-3H-benzo[b]azepine-4,8-dicarboxamide], the EC50 is reported as 1000 to 3000 nM. With `CCCN(CCC)C(=O)C1=Cc2ccc(C(=O)Nc3ccc(N4CCC(N)CC4)nc3)cc2N=C(N)C1` [Compound 1.57, 2-amino-N^8-(6-(4-aminopiperidin-1-yl)pyridin-3-yl)-N^4,N^4-dipropyl-3H-benzo[b]azepine-4,8-dicarboxamide tris HCl salt] the EC50 was < 500 nM. `CCCN(CCC)C(=O)C1=Cc2ccc(C(=O)Nc3cncc(C4CCNC4)c3)cc2N=C(N)C1` (stereo not drawn) [Compound 1.58, 2-amino-N^4,N^4-dipropyl-N^8-(5-(pyrrolidin-3-yl)pyridin-3-yl)-3H-benzo[b]azepine-4,8-dicarboxamide] was tested, and the EC50 was 500 to 1000 nM. `CCCN(CCC)C(=O)C1=Cc2ccc(NC(=O)c3cccnc3)cc2N=C(N)C1` [Compound 1.62, 2-amino-8-(nicotinamido)-N,N-dipropyl-3H-benzo[b]azepine-4-carboxamide] gave an EC50 of 500 to 1000 nM. `CCCN(CCC)C(=O)C1=Cc2ccc(S(=O)(=O)Nc3cccnc3)cc2N=C(N)C1` [Compound 1.63, 2-amino-N,N-dipropyl-8-(N-(pyridin-3-yl)sulfamoyl)-3H-benzo[b]azepine-4-carboxamide] was tested, and the EC50 was 500 to 1000 nM.

Reference: US10428045B2, “Benzazepine compounds, conjugates, and uses thereof” (Silverback Therapeutics, Inc., priority 2017, dated 2019)
